Test systems include Hs-578T; OVCAR-4; M14; MDA-N; SK-MEL-2; MDA-MB-435; COLO 205; RXF 393; MDA-MB-231; NCI-H460; SK-MEL-5; TK-10; SF-295; SW-620; EKVX; HT-29; UO-31; NCI-H522; SK-OV-3; UACC-62.
Test in all cases: NCI anticancer screen, dose series, 48 h

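1) Cells in 96-well plates. 2) Compound, 48 h, 5 concentrations. 3) Linear interpolation between surrounding doses. 4) Unreached endpoint = highest concentration. GI50: concentration for 50% inhibition of growth.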 Active and inactive are the calls of the source. Rule as the data show it: active = GI50 up to about 1.1 µM and inactive = higher. Where only a bound is given, the exact number is not on record here.

Results on eleven molecules are retold here after ChEMBL document CHEMBL1201862, “PubChem BioAssay data set” (2004).

Take `O=C(Nc1cc2cc([N+](=O)[O-])ccc2oc1=O)c1cccs1`: the GI50 in the experiment with Hs-578T was 30.8 µM (inactive); in the experiment on OVCAR-4, 43.6 µM (inactive); in the experiment on M14, 58.7 µM (inactive); with MDA-N it was 46.1 µM (inactive); in the experiment on SK-MEL-2 it was 72.9 µM (inactive); in the experiment on MDA-MB-435, 25.2 µM (inactive). Besides, the GI50 with COLO 205 is 25.2 µM (inactive); with RXF 393 it was 4.86 µM (inactive); with MDA-MB-231 it was 34.9 µM (inactive); with NCI-H460, 51.2 µM (inactive); with SK-MEL-5, 16 µM (inactive); in the experiment with TK-10, > 100 µM (inactive). The GI50 was 54.2 µM (inactive) with SF-295; 49.9 µM (inactive) in the experiment on SW-620; 61.7 µM (inactive) in the experiment with EKVX; 39.5 µM (inactive) in the experiment with HT-29; 60.4 µM (inactive) in the experiment with UO-31; 24.5 µM (inactive) with NCI-H522.

On to `CC(=O)Oc1ccc2c(c1)c1c(OC(C)=O)c3ccccc3c(OC(C)=O)c1n2Cc1cccc(C)c1`, for which the GI50 was 20.4 µM (inactive) with SK-OV-3; 24.9 µM (inactive) in the experiment with Hs-578T; 45.4 µM (inactive) with UACC-62; 33.3 µM (inactive) with OVCAR-4; 30.3 µM (inactive) with M14; 60.4 µM (inactive) with MDA-N. In addition, the GI50 in the experiment on SK-MEL-2 was 20 µM (inactive); with MDA-MB-435, 65.6 µM (inactive); in the experiment on COLO 205, 60.5 µM (inactive); with RXF 393, 38.9 µM (inactive); in the experiment with MDA-MB-231, 31.1 µM (inactive); in the experiment on NCI-H460, 30.3 µM (inactive). The GI50 was 50.8 µM (inactive) in the experiment with TK-10; 19.5 µM (inactive) with SF-295; 15.8 µM (inactive) with EKVX; > 100 µM (inactive) in the experiment with HT-29; 40 µM (inactive) with UO-31; 19.6 µM (inactive) with NCI-H522.

Regarding `CCOC(=O)c1c(C)n(C)c2c1cc(O)c1[nH]c3c(c12)CCCC3`, the GI50 is 29.4 µM (inactive) in the experiment on SK-OV-3; 32.7 µM (inactive) with Hs-578T; 18.8 µM (inactive) in the experiment on UACC-62; 10.8 µM (inactive) with OVCAR-4; 13.2 µM (inactive) in the experiment with M14; 15.6 µM (inactive) in the experiment on MDA-N. In addition, the GI50 with SK-MEL-2 is 18.5 µM (inactive); in the experiment on MDA-MB-435 it was 13.4 µM (inactive); in the experiment on COLO 205 it was 10.8 µM (inactive); in the experiment on MDA-MB-231 it was 17.1 µM (inactive); with NCI-H460, 20.5 µM (inactive); in the experiment on SK-MEL-5 it was 12.3 µM (inactive). Further, the GI50 in the experiment on TK-10 is 22.9 µM (inactive); in the experiment with SF-295, 39.1 µM (inactive); with SW-620, 20.8 µM (inactive); in the experiment with EKVX, 17.6 µM (inactive); in the experiment on HT-29 it was 18.8 µM (inactive); in the experiment on UO-31, 19.6 µM (inactive). In addition, in the experiment with NCI-H522, the GI50 was 14 µM (inactive).

For `Nc1c(Br)cc(-c2cc(Br)c(N)c(Br)c2)cc1Br`, the GI50 in the experiment on SK-OV-3 was > 100 µM (inactive); with Hs-578T, 73.1 µM (inactive); with UACC-62 it was > 100 µM (inactive); in the experiment with OVCAR-4, > 100 µM (inactive); in the experiment with M14 it was > 100 µM (inactive); with MDA-N, > 100 µM (inactive). Besides, the GI50 in the experiment on MDA-MB-435 is > 100 µM (inactive); with COLO 205, > 100 µM (inactive); in the experiment on RXF 393 it was 33.6 µM (inactive); in the experiment on MDA-MB-231, > 100 µM (inactive); in the experiment on NCI-H460, > 100 µM (inactive); in the experiment on SK-MEL-5, > 100 µM (inactive). The GI50 in the experiment with TK-10, in the experiment on SF-295, with SW-620, in the experiment on EKVX, in the experiment on HT-29 and in the experiment on UO-31 was > 100 µM (inactive) each time. In addition, the GI50 in the experiment on NCI-H522 is > 100 µM (inactive).

For `COc1ccc(/C=C2/C(=O)N(/C=C3\C(=O)Oc4ccccc4C3=O)/C(=N/C(C)=O)N2C)cc1OC`, the GI50 in the experiment with SK-OV-3, in the experiment on Hs-578T, in the experiment on UACC-62, in the experiment on OVCAR-4, with M14 and in the experiment with MDA-N was > 100 µM (inactive) each time. The GI50 in the experiment on SK-MEL-2, in the experiment with MDA-MB-435, with COLO 205, in the experiment with RXF 393, in the experiment on MDA-MB-231 and with NCI-H460 was > 100 µM (inactive) in each case. Moreover, the GI50 in the experiment with SK-MEL-5, with SF-295, in the experiment on SW-620, in the experiment on EKVX, in the experiment with HT-29 and in the experiment with NCI-H522 was > 100 µM (inactive) each time.

For the molecule `c1cc2ccc3cc4ncccc4c4ccc(c1)c2c34`, the GI50 was 37.2 µM (inactive) in the experiment on SK-OV-3; > 100 µM (inactive) in the experiment with Hs-578T; 20.6 µM (inactive) in the experiment with UACC-62; 71.6 µM (inactive) in the experiment with M14; 41.9 µM (inactive) in the experiment with MDA-N; 16.6 µM (inactive) in the experiment on SK-MEL-2. For the same molecule, the GI50 was 40.4 µM (inactive) with MDA-MB-435; 9.82 µM (inactive) in the experiment on COLO 205; 46.8 µM (inactive) in the experiment on RXF 393; 20.8 µM (inactive) in the experiment on MDA-MB-231; 5.05 µM (inactive) with NCI-H460; 22.8 µM (inactive) in the experiment with TK-10. The GI50 was 17.1 µM (inactive) with SF-295; 17.5 µM (inactive) in the experiment on SW-620; 22.5 µM (inactive) in the experiment with EKVX; 23.2 µM (inactive) in the experiment on HT-29; 5.43 µM (inactive) in the experiment on UO-31; 16.7 µM (inactive) in the experiment on NCI-H522.

Regarding `CCOP(C)(=O)C(N)Cc1ccc(OC)c(OC)c1` (stereo not drawn), the GI50 in the experiment on SK-OV-3, in the experiment with Hs-578T, in the experiment with UACC-62, with OVCAR-4, with M14 and in the experiment with MDA-N was > 100 µM (inactive) each time. The GI50 in the experiment on MDA-MB-435, with COLO 205, in the experiment with RXF 393, in the experiment with MDA-MB-231, with NCI-H460 and with SK-MEL-5 was > 100 µM (inactive) in each case. For the same molecule, the GI50 with TK-10, in the experiment with SF-295, in the experiment with SW-620, in the experiment on EKVX, in the experiment with HT-29 and with UO-31 was > 100 µM (inactive) throughout. Besides, the GI50 in the experiment on NCI-H522 was > 100 µM (inactive).

With `CN(C)c1cc2ccccc2oc1=O`, the GI50 in the experiment on Hs-578T, in the experiment on UACC-62, in the experiment on OVCAR-4, in the experiment with M14, in the experiment on MDA-N and with SK-MEL-2 was > 100 µM (inactive) throughout. Further, the GI50 in the experiment on MDA-MB-435 is > 100 µM (inactive); with COLO 205 it was > 100 µM (inactive); in the experiment with RXF 393 it was 20.6 µM (inactive); in the experiment on MDA-MB-231, > 100 µM (inactive); with NCI-H460 it was > 100 µM (inactive); with SK-MEL-5 it was > 100 µM (inactive). Further, the GI50 in the experiment on TK-10, with SF-295, in the experiment on SW-620, with EKVX, in the experiment with HT-29 and in the experiment on UO-31 was > 100 µM (inactive) throughout. Also, the GI50 in the experiment on NCI-H522 is > 100 µM (inactive).

On to `Clc1cccc2[nH]ncc12`, for which the GI50 in the experiment on SK-OV-3 is > 100 µM (inactive); with Hs-578T, 76 µM (inactive); in the experiment with UACC-62, > 100 µM (inactive); in the experiment with OVCAR-4 it was > 100 µM (inactive); with MDA-N it was > 100 µM (inactive); in the experiment on SK-MEL-2 it was > 100 µM (inactive). Further, the GI50 in the experiment with MDA-MB-435 was > 100 µM (inactive); in the experiment on COLO 205, 74.6 µM (inactive); in the experiment on RXF 393, 51.8 µM (inactive); in the experiment on MDA-MB-231 it was > 100 µM (inactive); in the experiment on NCI-H460, > 100 µM (inactive); in the experiment on SK-MEL-5, > 100 µM (inactive). Also, the GI50 with TK-10 was > 100 µM (inactive); in the experiment with SF-295 it was > 100 µM (inactive); in the experiment with SW-620, > 100 µM (inactive); with EKVX, 32.4 µM (inactive); with HT-29, > 100 µM (inactive); in the experiment with NCI-H522, 26.5 µM (inactive).

Regarding `COc1cc2c(c(OC)c1OC)-c1ccc(SC)c(=O)cc1[C@@H](OC(C)=O)CC2`, the GI50 is < 0.01 µM (active) with Hs-578T; < 0.01 µM (active) in the experiment with UACC-62; > 100 µM (inactive) with OVCAR-4; < 0.01 µM (active) in the experiment with M14; < 0.01 µM (active) with MDA-N; < 0.01 µM (active) in the experiment with SK-MEL-2. Also, the GI50 in the experiment with MDA-MB-435 was < 0.01 µM (active); with COLO 205 it was < 0.01 µM (active); with RXF 393, 0.885 µM (active); in the experiment with MDA-MB-231, < 0.01 µM (active); in the experiment with NCI-H460, < 0.01 µM (active); with SK-MEL-5, < 0.01 µM (active). The GI50 in the experiment on TK-10 was 21.8 µM (inactive); in the experiment with SF-295 it was < 0.01 µM (active); in the experiment on SW-620, < 0.01 µM (active); with HT-29 it was < 0.01 µM (active); in the experiment with UO-31 it was < 0.01 µM (active); in the experiment on NCI-H522, < 0.01 µM (active).

On to `C/C(=N\Nc1nc2ccccc2o1)c1cc2ccccc2cn1`, for which the GI50 in the experiment with SK-OV-3 was 0.0474 µM (active); in the experiment with Hs-578T, 0.237 µM (active); in the experiment with UACC-62, 0.0775 µM (active); in the experiment with OVCAR-4 it was 0.0906 µM (active); in the experiment on M14, < 0.01 µM (active); in the experiment on MDA-N it was 0.942 µM (active). For the same molecule, the GI50 was 2.98 µM (inactive) in the experiment on SK-MEL-2; 0.202 µM (active) with MDA-MB-435; < 0.01 µM (active) in the experiment with COLO 205; 0.946 µM (active) with RXF 393; < 0.01 µM (active) with MDA-MB-231; 0.0311 µM (active) with NCI-H460. For the same molecule, the GI50 in the experiment with SK-MEL-5 is 0.0101 µM (active); in the experiment with SF-295, 0.174 µM (active); in the experiment on SW-620, < 0.01 µM (active); in the experiment on EKVX it was < 0.01 µM (active); in the experiment with HT-29, < 0.01 µM (active); in the experiment with UO-31, < 0.0147 µM (active). The GI50 in the experiment on NCI-H522 was < 0.01 µM (active).
